Calls of active or inactive are those of the source. The calls are words filed in the database; no cut-off is given here.
Test system: L1210
Assay: Antitumor activity against mouse L1210 cells allografted in ip dosed mouse administered qd on day 1, 5 and 9 relative to control
Format: functional

SMILES	T/C [%]	Activity
CCSC1=C(N2CC2)C(=O)C(SCC)=C(N2CC2)C1=O	130	–
CC1(C)CN1C1=C(Br)C(=O)C(N2CC2(C)C)=C(Br)C1=O	–	inactive
CC1(C)CN1C1=C(Cl)C(=O)C(N2CC2(C)C)=C(Cl)C1=O	–	inactive
CC1CN1C1=C(Br)C(=O)C(N2CC2C)=C(Br)C1=O (stereo not given)	–	inactive
CC1CN1C1=C(Cl)C(=O)C(N2CC2C)=C(Cl)C1=O (stereo not given)	–	inactive
O=C1C(Br)=C(N2CC2)C(=O)C(Br)=C1N1CC1	–	inactive
O=C1C(Cl)=C(N2CC2)C(=O)C(Cl)=C1N1CC1	–	inactive

Test system: L1210
Assay: Antitumor activity against mouse L1210 cells allografted in ip dosed mouse
Format: functional, organism-based

SMILES	Activity
CC(=O)NC1=C(Cl)C(=O)C(NC(C)=O)=C(Cl)C1=O	inactive
CC(=O)NC1=C(N2CC2(C)C)C(=O)C(NC(C)=O)=C(N2CC2(C)C)C1=O	inactive
CCCSC1=C(N2CC2)C(=O)C(SCCC)=C(N2CC2)C1=O	inactive
CCOC(=N)C1=C(Cl)C(=O)C(C(=N)OCC)=C(Cl)C1=O	inactive
COC1=C(Br)C(=O)C(OC)=C(Br)C1=O	inactive
NC1=C(Cl)C(=O)C(N)=C(Cl)C1=O	inactive
O=C1C(Cl)=C(Cl)C(=O)C(Cl)=C1Cl	inactive
O=C1C(Cl)=C(N2CC2)C(=O)C(Cl)=C1N1CC1	inactive

— ChEMBL document CHEMBL3272309, “Potential central nervous system antitumor agents. Aziridinylbenzoquinones. 1” (J Med Chem, 1976)
